From patent US12564586B2, “Kappa opiod receptor antagonists for treating pain-related sleep disorders” (ARIZONA BOARD OF REGENTS ON BEHALF OF THE UNIVERSITY OF …, priority 2020, dated 2026)
“Also recorded” adds a separate entry of the source.

Assays:
[1] = tested on: PSNL mice (chronic neuropathic pain model); assay: EEG/EMG sleep evaluation in the chronic pain model induced by partial sciatic nerve ligation (PSNL); assay type: in vivo, C57BL/6J mice; conditions: for components of pain-related sleep disturbance (sleep time loss, fragmentation of sleep, daytime sleepiness): mouse model of chronic neuropathic pain, summary statement; for duration of non-REM sleep (sleep fragmentation): 6-hour intervals
PSNL mice = assay: von Frey test (paw withdrawal threshold, tactile allodynia); assay type: in vivo; conditions: nor-BNI, naïve or injured (PSNL) animals
sham surgery mice = assay: EEG/EMG sleep evaluation in sham surgery mice; assay type: in vivo, C57BL/6J mice
Protocol: Norbinaltorphimine (nor-BNI) was dissolved in 0.9% saline to 10 mg/kg just before injection. C57BL/6J mice received intraperitoneal injection of nor-BNI or vehicle (0.9% saline) 30 minutes before EEG/EMG record at 10 days after partial sciatic nerve ligation (PSNL) surgery (FIG. 2A). CYM-53093 was synthesized as described previously by Guerrero et al. It was dissolved in DMSO, tween and saline at a ratio of 1:1:8. C57BL/6J mice were implanted with a micro-osmotic pump under the skin at 8 days after PSNL surgery and received continuous infusion of CYM-53093 (10 mg/kg/day) or vehicle. Mice had surgical recovery for 1 day after pump implantation followed by EEG/EMG record for 5 days (FIG. 3A).
EEG/EMG recording head-mount implantation was done under 2-5% isoflurane anesthesia, mice were implanted with EEG and EMG electrodes for polysomnographic recordings (Pinnacle Technology, Oregon, USA) as described previously by Ito et al. Recording was done in awake animals after acclimatization using EEG/EMG mouse sleep equipment from Pinnacle Technology. The collected EEG/EMG data were analyzed by software (Sleepsign; Kissei Comtec, Japan). The vigilance of every 5-second epoch was automatically classified into three stages, i.e., wakefulness, REM and non-REM sleep, according to the standard criteria. As a final step, defined sleep-wake stages were examined visually and corrected, if necessary. The vigilance states were assessed as follows: 1) wakefulness was defined by a high EMG amplitude, low EEG amplitude; 2) REM sleep was defined by a low EMG amplitude, low EEG amplitude, and high 0 wave (5.0-10.0 Hz) activity; and 3) non-REM sleep was defined by a low EMG amplitude, high EEG amplitude, and high 8 wave (0.65-4.5 Hz) activity.
To investigate the effect of the long acting KOR antagonist, nor-BNI, on sleep disruption in preclinical model of chronic pain, the percentage of sleep time for 24 hours between the groups administered nor-BNI or vehicle 10 days after partial sciatic nerve ligation (PSNL), and baseline before PSNL surgery were compared (FIG. 2A). The sham groups were also evaluated in the same time series as PSNL groups. […] First, in order to evaluate the sleep-wake cycle of each group, the changes in the percentage of sleep time were examined every two hours. […] Secondly, the percentage of total sleep (FIG. 2D), non-REM sleep (FIG. 2E), and REM sleep (FIG. 2F) were evaluated and time in the light phase and dark phase were evaluated separately. […] Then, duration of awake and non-REM sleep was evaluated at 6-hour intervals (early and late light phase and early and late dark phase), and compared between baseline, sham/vehicle group, PSNL/vehicle group, sham/nor-BNI group, and PSNL/nor-BNI group.

[2] = PSNL, continuous infusion of CYM-53093 10 mg/kg/day, 10 mg/kg/day
[3] = PSNL group, nor-BNI 10 mg/kg i.p.
[4] = sham animals, nor-BNI treated vs vehicle treated

SMILES | fragmentation of non-REM sleep ([1]; PSNL, continuous infusion of CYM-53093 10 mg/kg/day) | sleep time ([1]; PSNL, continuous infusion of CYM-53093 10 mg/kg/day by micro-osmotic pump, 5-day recording, 10 mg/kg/day) | power density of δ wave during non-REM sleep ([1]; PSNL, continuous infusion of CYM-53093 10 mg/kg/day, test day 4, 10 mg/kg/day) | REM sleep [1, 2] | duration of wakefulness at the first half of the dark phase [1, 2] | non-REM sleep [1, 2] | components of pain-related sleep disturbance (sleep time loss, fragmentation of sleep, daytime sleepiness) [1] | evoked (mechanical/tactile) allodynia, paw withdrawal threshold (PSNL mice) | REM sleep time [1, 3] | duration of wakefulness during the early half of the dark phase [1, 3] | non-REM sleep time [1, 3] | percentage of total sleep ([1]; PSNL group, nor-BNI 10 mg/kg i.p. 10 days after PSNL, light phase) | duration of non-REM sleep (sleep fragmentation) [1, 3] | duration of non-REM sleep (sleep fragmentation) ([1]; PSNL group, nor-BNI 10 mg/kg i.p., listed as Nor-BNI) | sleep time (percentage of sleep time every two hours) ([1]; PSNL group, nor-BNI 10 mg/kg i.p., vs baseline before PSNL surgery) | power spectrum during non-REM sleep ([1]; nor-BNI 10 mg/kg i.p.) | percentage of non-REM sleep (sham surgery mice; [4]) | percentage of total sleep (sham surgery mice; [4]) | sleep time (percentage of sleep time every two hours) (sham surgery mice; sham groups, nor-BNI 10 mg/kg i.p.) | REM sleep time (sham surgery mice; sham mice, nor-BNI 10 mg/kg i.p.)
CCc1cc(F)c2nc(N3CCC(NC4CCOCC4)CC3)c(-c3nc(C)no3)c(C)c2c1 [CYM53093] | normalized fragmentation of non-REM sleep | normalized the reduction of sleep time up until day 4; also recorded: normalized the reduction of sleep time and the effect lasted at least until day 4 | no change in the power density; also recorded: did not change | did not improve REM sleep | improved non-REM sleep, wakefulness during the first part of the dark phase; also recorded: improved short duration of wakefulness at the first half of the dark phase | improved non-REM sleep; also recorded: mainly influenced non-REM sleep | improved several important components of pain-related sleep disturbance | – | – | – | – | – | – | – | – | – | – | – | – | –
Oc1ccc2c3c1O[C@H]1c4[nH]c5c(c4C[C@@]4(O)[C@@H](C2)N(CC2CC2)CC[C@]314)C[C@@]1(O)[C@H]2Cc3ccc(O)c4c3[C@@]1(CCN2CC1CC1)[C@H]5O4 [nor-BNI, Norbinaltorphimine] | – | – | – | – | – | – | improved several important components of pain-related sleep disturbance | did not alter mechanical allodynia in naïve or injured animals; also recorded: did not influence the evoked allodynia | did not improve REM sleep time | improved the inability to stay awake during the dark (active) time of the day; also recorded: tended to extend this duration somewhat, it was not significant | increased non-REM sleep time | 71.4±1.3% | improved sleep fragmentation in PSNL during non-REM sleep | improved this fragmented sleep by PSNL | normalized the deficit of sleep time of the partial sciatic nerve ligation (PSNL) group to the same as baseline; also recorded: normalized the reduction of sleep time of the PSNL group almost to the same level as baseline | did not change the power spectrum; also recorded: unchanged in both groups | no significant difference in the percentage of total sleep and non-REM sleep | no significant difference in the percentage of total sleep and non-REM sleep | had no effect in the sham surgery group; also recorded: had no significant effect on sleep time | significantly reduced REM sleep time in sham mice
